Test results published in patent US12144824B2, “Method for enhancing embryo implantation” (The Flinders University of South Australia, priority 2018, dated 2024).

Columns and labels:
murine day 3 embryos = assay: Mouse embryo development and blastocyst outgrowth assay on fibronectin-coated plates; assay type: cell-based; details: short term exposure
Protocol: Ishikawa cells were seeded onto 2-well chamber slides in Ishikawa medium until they reached 80-90% confluence. Then, 5 minutes prior to exposure to metal implants, the medium was changed to G2 embryo culture medium, and the Ishikawa cells exposed to copper, zinc or copper-zinc bimetal implants for either 2 or 5 minutes duration (or remained unexposed (control)), and the resulting G2 culture media collected 8 hours later.
To determine whether metal ions were capable of enhancing embryo implantation, post-compaction mouse embryos were exposed to the “conditioned media” prior to undergoing outgrowth assays. In particular, pronucleate oocytes were collected from superovulated female F1 mice ˜21-22 hours post-hCG. Following cumulus cell removal, oocytes were cultured in 20 μl drops (10 embryos/drop) of G1 medium under paraffin oil (Vitrolife) at 37° C. in 6% CO2, 5% O2 and 89% N2. After 48 hours, compacting and morulae stage embryos were randomly transferred to culture in either (i) control G2 medium (Vitrolife) that had not been exposed to Ishikawa cells; (ii) individual culture in 2 μl of control, Ishikawa exposed G2; or (iii) individual culture in 2 μl drops of 2 minute copper-zinc bimetal implant exposed G2 medium. After 48 hours, the capacity of blastocysts to undergo outgrowth was assessed in the following manner. […] All images were collected and analysed at matching magnification.

[1] = system: VEGF production, human Ishikawa endometrial adenocarcinoma cell line; assay: VEGF production by Ishikawa cells exposed to copper or zinc chloride solutions (multiplex immunoassay); assay type: cell-based
Protocol: Medium was refreshed every 48 hours. Cells were subcultured using 0.25% trypsin/EDTA (Invitrogen).

[2] = system: LIF production, human Ishikawa endometrial adenocarcinoma cell line; assay: LIF production by Ishikawa cells exposed to copper or zinc chloride solutions (multiplex immunoassay)
Protocol: (§1) The human Ishikawa endometrial adenocarcinoma cell line (Sigma-Aldrich; St Louis, MO, United States of America) was used to model the endometrium's response to copper and zinc metal ions (Cu^2+ and Zn^2+). Cells were grown in T75 flasks (Nalge Nunc International, Rochester, NY, United States of America) in Ishikawa medium, consisting of αMEM (Sigma-Aldrich) supplemented with 5% foetal bovine serum (Invitrogen Corp, Carlsbad, CA, United States of America), 2 mM glutamine (Sigma-Aldrich) and 1% non-essential amino acids (Sigma-Aldrich) without antibiotics at 37° C. under a gas atmosphere of 5% CO2 in air. Medium was refreshed every 48 hours. Cells were subcultured using 0.25% trypsin/EDTA (Invitrogen). For metal ion exposure experiments, cells were seeded onto 2-well chamber slides (Ibidi, Martinsried, Germany). After the endometrial cells had attached and reached 80-90% confluence they were then exposed to copper and zinc metal ions using two approaches (salt solution or metal implant) as described below.
(§2) Copper or zinc chloride (Sigma-Aldrich) was dissolved in Ishikawa medium to produce salt solutions at various concentrations in the range of 0.2 μM and 200 μM, before being applied to Ishikawa cells seeded into 2-well chamber slides for a period of 8 hours. Following the 8 hours exposure, culture media were removed, centrifuged at 1000 g for 10 minutes at 4° C. to pellet any cellular debris, and then the supernatants were stored in Eppendorf tubes at −80° C. Subsequently, the supernatants were assayed for both LIF and VEGF content using a multiplex immunoassay system (elisakit.com, Scoresby, VIC, Australia).

[3] = system: LIF production, human Ishikawa endometrial adenocarcinoma cell line
Protocol: as §1, §2

## [Cu+2] [copper ions]
Murine day 3 embryos
  toxicity to pre-implantation embryo development: not significant

## [Cl-].[Cl-].[Zn+2] [ZnCl2, zinc chloride]
[1]; 8 hours exposure
  concentration from which VEGF production appeared reduced: ≥ 150 µM
  increase in VEGF compared to controls: no significant increase
[2]; 8 hours exposure
  dose above which toxicity, with a reduction in LIF production, was observed: exceeding 150 μM

## [Cl][Cu][Cl] [CuCl2, copper chloride]
[3]
  toxicity in relation to LIF production: No toxicity
[1]; 8 hours exposure
  concentration of peak VEGF production: 100 µM
  concentration producing a significant increase in VEGF production: above 20 μM
[1]; Example 1
  lowest amount confirmed to elicit an increase in endometrial VEGF: 20 µM
[1]; in vitro
  concentration exceeding which a relative decline in endometrial VEGF production was observed: exceeding 100 μM
[2]; CuCl2 200 μM
  increase in endometrial LIF production: 4 fold
[2]; CuCl2 200 μM, 8 hours
  LIF production increase above baseline: 420%
[2]; Example 1
  lowest amount confirmed to elicit an increase in endometrial LIF: 20 µM
[2]; salt solution in Ishikawa medium, 8 hours exposure
  concentration producing a significant increase in LIF production: exceeding 2 μM

## [Zn+2] [zinc ions]
Murine day 3 embryos
  toxicity to pre-implantation embryo development: not significant
